This test addresses succinate dehydrogenase (SDH) (Botrytis cinerea, UniProt A0A384J5E4+A0A384J8V8+A0A384JHJ5). Briefly: SDH assay kit on B. cinerea mitochondrial suspension, absorbance at […] nm. Format: biochemical. The note with it: read-out: IC50 / μM.

Each structure is given as a SMILES string.

succinate dehydrogenase (SDH), sequence (A0A384J5E4 31-300): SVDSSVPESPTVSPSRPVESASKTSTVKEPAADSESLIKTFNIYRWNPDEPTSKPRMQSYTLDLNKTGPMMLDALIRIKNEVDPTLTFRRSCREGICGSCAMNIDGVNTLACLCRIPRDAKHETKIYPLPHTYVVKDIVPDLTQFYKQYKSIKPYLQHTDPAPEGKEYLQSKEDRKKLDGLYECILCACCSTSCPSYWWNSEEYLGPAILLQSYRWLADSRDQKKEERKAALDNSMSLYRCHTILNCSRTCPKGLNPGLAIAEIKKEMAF
succinate dehydrogenase (SDH), sequence (A0A384J8V8 41-189): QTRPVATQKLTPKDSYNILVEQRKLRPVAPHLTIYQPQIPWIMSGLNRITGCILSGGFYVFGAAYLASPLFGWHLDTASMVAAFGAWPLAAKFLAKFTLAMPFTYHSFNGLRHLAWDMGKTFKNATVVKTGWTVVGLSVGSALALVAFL
succinate dehydrogenase (SDH), sequence (A0A384JHJ5 55-192): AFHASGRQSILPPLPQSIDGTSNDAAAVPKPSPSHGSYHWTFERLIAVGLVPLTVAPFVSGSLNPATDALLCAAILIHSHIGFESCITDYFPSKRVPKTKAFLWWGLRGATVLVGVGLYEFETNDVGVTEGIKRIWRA
succinate dehydrogenase (SDH), sequence (A0A384K456 41-647 partner): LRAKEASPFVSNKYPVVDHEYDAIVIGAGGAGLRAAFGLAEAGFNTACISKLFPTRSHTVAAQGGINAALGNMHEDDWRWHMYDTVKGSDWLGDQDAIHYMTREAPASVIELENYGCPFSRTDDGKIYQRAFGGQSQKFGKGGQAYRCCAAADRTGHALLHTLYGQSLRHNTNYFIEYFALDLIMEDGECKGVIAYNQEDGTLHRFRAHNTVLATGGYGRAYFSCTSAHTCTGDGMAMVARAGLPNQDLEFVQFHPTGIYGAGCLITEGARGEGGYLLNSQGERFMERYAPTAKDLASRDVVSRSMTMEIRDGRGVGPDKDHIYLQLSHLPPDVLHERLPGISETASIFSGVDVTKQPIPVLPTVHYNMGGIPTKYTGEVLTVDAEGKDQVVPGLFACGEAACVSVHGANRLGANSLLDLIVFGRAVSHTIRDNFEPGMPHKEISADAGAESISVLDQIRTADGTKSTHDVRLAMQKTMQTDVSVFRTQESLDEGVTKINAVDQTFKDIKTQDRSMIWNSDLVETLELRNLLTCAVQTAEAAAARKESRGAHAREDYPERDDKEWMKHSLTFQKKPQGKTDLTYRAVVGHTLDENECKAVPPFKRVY

Take `O=C(Nc1ccccc1Nc1ccccc1)c1ccc(Cl)nc1` [3f, 6-chloro-N-(2-(phenylamino)phenyl)nicotinamide]: the IC50 was 17.3 µM.
On to `Cc1nc(C(F)(F)F)c(C(=O)Nc2c(Br)cc(OC(F)(F)F)cc2Br)s1` [thifluzamide], for which the IC50 worked out at 14.4 µM.

Values taken from article PMC9706280 (Journal of Pesticide Science, 2022).
